This note sets out measurements from PubChem BioAssay (NCI).

What all share (assay): NCI tumour cell line growth inhibition, 48 h
The test system of test [1] is MALME-3M melanoma.
The subject of test [2] is NCI-H522 lung.
In test [3] the test system is HS 578T breast.
The test system of test [4] is SK-OV-3 ovarian.
Test [5] deals with HOP-62 NSCLC.
The test system of test [6] is OVCAR-5 ovarian.
In test [7] the test system is UO-31 renal.
Test [8] deals with HCT-116 colon.
Test [9] deals with SK-MEL-28 melanoma.
Test [10] relates to TK-10 renal.

Several values for one entry are separate records, joined by “and”; a condition that tells them apart may be missing. Equal values may be shown once.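 Exposure lasted 48 hours, with cells grown in 96-well plates and compounds tested at five concentrations. GI50: concentration for 50% inhibition of growth. TGI denotes the concentration required for complete inhibition of growth.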

As for `C=C1C(=O)OC2CC3(C)OC3C3OC3C3=CC(OC3=O)C12` (stereo unspecified), the GI50 in [1] was 2.12 µM; in test [2], 0.299 µM; in test [3], 19.3 µM; in [4], 25.4 µM; in test [5] it was 15.2 µM; in test [6] it was 9.05 µM. Further, the GI50 was 2.84 µM in test [7], 1.67 µM in test [8], 5.75 µM in [9] and 1.91 µM in test [10]. Moreover, the TGI in test [1] was 4.19 µM; in test [2], 0.904 µM; in [3] it was 68.7 µM; in test [4] it was greater than 57 µM; in test [5] it was 41.5 µM; in test [6] it was 25.7 µM. For the same molecule, the TGI in test [7] came out at 7.54 µM; in [8], 3.15 µM; in test [9] it was 12.5 µM; in test [10], 3.39 µM.

With `O=P1(O)c2ccccc2CS(=O)(=O)Cc2ccccc21`, the TGI in test [2], in test [3], in test [4], in test [5], in test [6] and in test [7] was greater than 100 µM in each case. The TGI in [8], in [9] and in test [10] was greater than 100 µM throughout.

With `Cc1cc2c(C(C)C)c(O)c(O)c(C=O)c2c(O)c1-c1c(C)cc2c(C(C)C)c(O)c(O)c(C=O)c2c1O` (tested in a mixture with another compound), the GI50 was 1.74 µM in [1]; 0.584 µM in test [2]; 0.543 µM in [3]; 1.78 µM in test [4]; 0.988 µM in [5]; 1.65 µM in test [6]. In addition, the GI50 is 1.64 µM in test [7], 0.455 µM in [8], 1.64 µM in test [9] and 0.546 µM in [10]. The TGI turned out to be 5.01 µM in test [1]; 2.44 µM in [2]; 4.33 µM in test [3]; 9.33 µM in [4]; 2.9 µM in test [5]; 5.26 µM in test [6]. Besides, the TGI in test [7] worked out at 4.56 µM; in test [8] it was 1.61 µM; in test [9], 3.64 µM; in test [10] it was 2.93 µM.

Turning to `CC[C@@]1(OC(=O)CN)C(=O)OCc2c1cc1n(c2=O)Cc2cc3c(N)c4c(cc3nc2-1)OCO4`, the GI50 in test [1] was 0.0124 µM; in [2] it was 0.00115 µM; in test [3], 0.232 µM; in [4], 0.00015 µM; in [5], less than 0.0001 µM; in test [6], 0.0065 µM and 0.0427 µM. The GI50 was less than 0.0001 µM in test [7]; 0.000318 µM in test [8]; 0.0409 µM and 0.119 µM in test [9]; 0.0167 µM and 0.104 µM in test [10]. Further, the TGI in [1] is 0.889 µM and 0.221 µM; in test [2], 0.146 µM; in [4], 0.148 µM; in test [5] it was 0.205 µM and 0.25 µM; in test [8], greater than 100 µM; in test [9] it was greater than 100 µM. Further, the TGI in test [10] was greater than 100 µM.

In the case of `Cc1cccnc1CNC1CC(NCc2ncccc2C)CC(NCc2ncccc2C)C1` (stereo unspecified), the GI50 is 2.84 µM in test [1]; 2.69 µM in [2]; 3.39 µM in [3]; 1.98 µM in [4]; 1.96 µM in test [5]; 1.92 µM in [6]. Further, the GI50 in test [7] is 4.85 µM; in [8], 1.63 µM; in test [9], 3.17 µM; in [10], 3.49 µM. For the same molecule, the TGI was found to be 9.46 µM in test [1]; 12.2 µM in [2]; 16.2 µM in [3]; 3.73 µM in test [4]; 4.52 µM in [5]; 5.23 µM in test [6]. The TGI in test [7] was 22.5 µM; in [8] it was 3.24 µM; in test [9], 12.4 µM; in [10], 11.3 µM.

For `CCCCCc1c(C)[nH]c(/C=c2\[nH]/c(=C3/C=c4ccccc4=N3)cc2OC)c1C`, the GI50 in test [2] was 0.101 µM; in test [3], 0.0846 µM; in test [4], 0.449 µM; in [5] it was 0.0767 µM; in test [6], 0.0654 µM; in test [7], 0.0882 µM. Also, the GI50 in test [8] is 0.028 µM; in [9], 0.125 µM; in test [10] it was 0.0504 µM. The TGI was 1.7 µM in test [2]; 0.883 µM in test [3]; 4.55 µM in [4]; 0.438 µM in test [5]; 1.81 µM in test [6]; 0.329 µM in test [7]. Besides, the TGI in test [8] stood at 1.07 µM; in test [9], 1.22 µM; in test [10] it was 0.716 µM.

Take `CN1CCN(c2ccc3nc4c(nc3c2C(F)(F)F)C(=O)c2ncccc2C4=O)CC1`: the GI50 in test [1] was 1.06 µM; in test [2], 1.16 µM; in test [3], 1.91 µM; in [4] it was 1.98 µM; in test [5], 1.07 µM; in test [7] it was 1.33 µM. In addition, the GI50 in [8] was 1.47 µM; in test [9] it was 1.99 µM; in test [10], 2.21 µM. Moreover, the TGI is 2.24 µM in test [1]; 3.55 µM in test [2]; 5.38 µM in [3]; 4.98 µM in test [4]; 2.92 µM in [5]; 2.84 µM in test [7]. Also, the TGI in test [8] turned out to be 4.51 µM; in test [9], 4.18 µM; in test [10] it was 5.3 µM.

On to `COc1cc2c3c(c1O)C1(C=CC(=O)C=C1)CC3N(C)CC2` (stereo unspecified), for which the TGI in test [1] is 24.8 µM; in [2], 7.21 µM; in test [3], greater than 100 µM; in test [4], greater than 100 µM; in [5], 25.7 µM; in test [6], 36.3 µM. The figures for the TGI in test [8], in [9] and in test [10] were 14.5 µM, 26 µM and 41.7 µM, respectively.
